Patent publication EP4417202A1, “ANTI-CANCER ACTION OF BAG1-SELECTIVE IMIDAZOPYRIDINE COMPOUNDS IN STEROID HORMONE RECEPTOR-POSITIVE BREAST AND PROSTATE CANCER” (Karlsruher Institut für Technologie, priority 2023, dated 2024)

Experiments:
BAG1M = biological target: T1, BAG1M (Homo sapiens, UniProt Q99933); test: Cellular thermal shift assay (Tagg-CETSA) in MCF-7 cells; format: binding; conditions: 1 µM, 1 h
T1 construct: endogenous in cells; host or cells: MCF-7
Experimental: (§1) To determine the aggregation temperature (Tagg-CETSA), MCF-7 cells were harvested and resuspended at a concentration of 2×10^6 cells/ml. X15695 (1 µM) or the same volume of DMSO were added to the cell suspension and incubated for 1 h at 37°C. Cells were washed and resuspend with phosphate-buffered saline (PBS) to a final concentration of 3×10^7 cells/ml. The cell suspension was evenly distributed into different tubes and treated with a gradient of temperature ranging from 37 to 62°C for 3 min. Cells were incubated 3 min at room temperature to ensure a uniform temperature between different tubes and then snap frozen with liquid nitrogen. Cells were lysed by freeze/thaw cycles with liquid nitrogen and centrifuged at 20,000 g for 20 min. Stable BAG proteins present in the supernatant were quantified by Western blotting using an anti-BAG1, 2, 3, and 5 antibodies and β-actin antibody for loading control.

BAG1L = biological target: T2, BAG1L (Homo sapiens, UniProt Q99933); test: as above; format: binding; conditions: 1 µM, 1 h
T2 construct: endogenous in cells; host or cells: MCF-7
T2 sequence (Q99933 whole entry): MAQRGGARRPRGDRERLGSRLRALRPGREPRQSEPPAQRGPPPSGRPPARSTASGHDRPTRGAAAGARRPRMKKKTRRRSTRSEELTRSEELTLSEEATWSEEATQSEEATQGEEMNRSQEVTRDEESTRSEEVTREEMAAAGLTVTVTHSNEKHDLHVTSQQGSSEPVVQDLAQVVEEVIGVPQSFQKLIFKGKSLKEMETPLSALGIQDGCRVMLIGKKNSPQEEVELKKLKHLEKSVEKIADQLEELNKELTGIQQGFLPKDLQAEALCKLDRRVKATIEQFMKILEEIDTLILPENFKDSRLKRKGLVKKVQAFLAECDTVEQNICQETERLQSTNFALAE
Experimental: as §1

BAG1 [1] = biological target: T3, BAG1 (Homo sapiens, UniProt Q99933); test: as above; format: binding; conditions: 1 µM, 1 h
T3 construct: endogenous in cells; host or cells: MCF-7
T3 sequence (Q99933 116-345): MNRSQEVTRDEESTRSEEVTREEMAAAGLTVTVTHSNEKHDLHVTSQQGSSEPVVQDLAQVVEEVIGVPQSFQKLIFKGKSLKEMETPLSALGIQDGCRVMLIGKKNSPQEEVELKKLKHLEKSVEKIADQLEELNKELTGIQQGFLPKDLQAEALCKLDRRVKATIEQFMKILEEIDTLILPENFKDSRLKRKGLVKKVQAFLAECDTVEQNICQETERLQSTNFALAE
Experimental: as §1

[2] = system: reactive oxygen species (ROS); test: Reduced 2',7'-dichlorofluorescein (DCF) diacetate oxidation assay; format: cell-based; conditions: 48 h
Experimental: For measurements of ROS levels, MCF-7 and T47D cells were seeded at 1×10^3 cells in RPMI 1640 supplemented with 10% FBS and treated with 10^-9 - 10^-6 M X15695 for 48 h. Afterwards, cells were loaded with 10 µM) H2DCF-DA (Thermo Fisher Scientific, Karlsruhe, Germany) in phenol red-free medium for 40 min. Cells were subsequently washed with medium and further incubated in medium for 120 min before analysis of fluorescence at 485 nm excitation and 530 nm emission using a multi-well fluorescence reader (SpectraMax iD3, Molecular Devices with SoftMax Pro 7 software, Biberach an der Riss, Germany). After the DCF assay, cells were frozen at -80°C overnight. After thawing, DNA was stained with a Hoechst dye (10 µg/ml final concentration) for 30 min at room temperature and fluorescence was measured at 352 nm excitation and 454 nm emission in a multi-well fluorescence reader (SpectraMax iD3, Molecular Devices with SoftMax Pro 7 software, Biberach an der Riss, Germany). DCF fluorescent intensities were normalized to Hoechst fluorescent intensities.

BAG1 [3] = test: Western blot of BAG1 level in breast cancer cells; format: cell-based; conditions: MCF-7 and T47D cells, 48 h
Experimental: For Western blotting, cells were lysed in NP-40 lysis buffer (1% NP-40, 50 mM Tris-HCl, pH 8.0, 150 mM NaCl, 5 mM EDTA) or 1× passive lysis buffer (Promega, Germany) for 15 min on ice. Cell debris was removed by centrifugation at 13,000 rpm for 10 min and used for SDS-polyacrylamide gel electrophoresis (PAGE) and Western blotting.
Western Blotting was carried out using standard protocols with antibodies: p53 (clone DO1), p53 (Sp5, Thermo Fisher Scientific Karlsruhe, Germany), Mdm2 (4B2, Abcam, Cambridge, UK). […] Secondary goat anti-mouse and goat anti-rabbit antibodies were purchased from DAKO (Bollschweil, Germany).

ERα = conditions: MCF-7 cells, 1 µM for 24 h, then 100 µg/ml cycloheximide; > 120 min in the absence of X15695
Experimental: Thereafter, cells were incubated with the protein synthesis inhibitor cycloheximide (100 µg/ml) and harvested at time points 0, 30, 60, 90 and 120 min. Cells were lysed and used for Western blotting to determine the ERα level at each time point.

[4] = system: BAG1 in a complex with mortalin; test: Co-immunoprecipitation in MCF-7 cells; format: cell-based; conditions: 1 µM, 48 h
Experimental: (§2) Cells were harvested, washed with PBS, and lysed using NP-40 lysis buffer. Protein A agarose beads (Thermo Fisher Scientific) were mixed with protein G agarose beads (Thermo Fisher Scientific) (4:1) and preincubated overnight at 4°C with anti-p53 or anti-BAG1 or control IgG antibody. Cellular extracts from X15695 treated and untreated cells (1,000 µg) were incubated with antibody-preincubated protein A/G agarose beads for 3 to 4 h at room temperature. The beads with immunoprecipitated proteins were collected at 4°C by centrifugation at 1,000 g for 5 min and washed 4 to 5 times with NP-40 lysis buffer. The immunoprecipitated proteins were eluted by heating in SDS sample buffer for 5 min at 95°C and resolved on SDS-PAGE. Thereafter, they were subjected to Western blot analysis to detect mortalin, BAG1, BAG2, BAG5 and p53. Cellular extracts containing 50 to 70 µg protein from X15695 treated and untreated cells were used as the input control for the targeted proteins.

p53/mortalin complex = test: Co-immunoprecipitation in MCF-7 cells; format: cell-based; conditions: 1 µM, 48 h
Experimental: as §2

ERα response genes = test: Quantitative RT-PCR of ERα response genes in MCF-7 and T47D cells; format: cell-based; conditions: 1 µM, 10 nM E2, 16 h
Experimental: MCF-7, T47D and LNCaP cells (5×10^4 each) were seeded in 6-well plates and cultured with hormone-depleted medium for 3 days. Subsequently, the MCF-7 and T47D cells were treated with 10 nM 17-β-estradiol (E2) or dihydrotestosterone (DHT) for the LNCaP cells, 1 µM) X15695 (for the MCF-7 and T47D cells) or 5 µM) for LNCaP cells and X15695 together with E2 or DHT. A 1 h pre-treatment with X15695 was performed prior to treatment with E2 or DHT for 16 h. RNA was extracted using innuPREP RNA mini Kit 2.0 (Analytic Jena, Berlin, Germany). 1 µg RNA per sample was used as input material for the RNA sample preparations. Sequencing libraries were generated using NEBNext® UltraTM RNA Library Prep Kit for Illumina® (NEB, USA) following the manufacturer's recommendations and index codes were added to attribute sequences to each sample. The clustering of the index-coded samples was performed on a cBot Cluster Generation System using PE Cluster Kit cBot-HS (Illumina) according to the manufacturer's instructions. After cluster generation, the library preparations were sequenced on an Illumina platform and paired-end reads were generated. Library preparation and sequencing were carried out by Novogene Europe, Cambridge, UK. […] Select target genes were analyzed by RT-PCR experiments with RNA from the samples used for the RNA-seq analysis. […]

MCF-7 and T47D cells = test: Apoptosis assessment, 7-AAD and Annexin V double staining; format: cell-based; conditions: 1 µM, 48 h
Experimental: Induction of apoptosis in response to treatment with X15695 was analyzed in MCF-7 and T47D cells using PE Annexin V Apoptosis Detection Kit with 7-AAD (BD Bioscience, San Diego, CA, USA) according to the manufacturer's protocol. In short, cells were harvested by trypsinization, and single cell suspensions (1×10^6 cells) were prepared as described above in 100 µl PBS. Cells were stained with 5 µl PE Annexin V and 5 µl 7-AAD for 15 min at room temperature in the dark. Subsequently, 400 µl PBS were added to each sample and flow cytometry measurements were performed within one hour. Cells stained with PE Annexin V or 7-AAD alone were used for compensation. Flow cytometry analysis was performed using BD FACSAria (BD Biosciences, Franklin Lakes, NJ, USA). Flow cytometry data were analyzed using FlowJo 10.8.1 cytometry analysis software (FlowJo, LLC).

T1 sequence (Q99933 72-345): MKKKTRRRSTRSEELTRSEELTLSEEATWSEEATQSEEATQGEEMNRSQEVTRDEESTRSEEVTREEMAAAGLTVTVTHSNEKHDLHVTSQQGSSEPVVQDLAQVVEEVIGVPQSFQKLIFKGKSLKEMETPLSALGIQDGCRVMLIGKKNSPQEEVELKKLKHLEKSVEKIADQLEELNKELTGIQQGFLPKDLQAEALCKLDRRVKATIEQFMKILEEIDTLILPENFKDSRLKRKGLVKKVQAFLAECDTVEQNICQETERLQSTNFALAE

`Fc1ccc(-c2cn3cc(C(F)(F)F)cc(Cl)c3n2)cc1` [Compound X15695, 8-Chloro-2-(4-fluorophenyl)-6-(trifluoromethyl)imidazo[1,2-a]pyridine] was tested, and the “increase of aggregation temperature (Tagg) over vehicle” value (shortened to “increase of aggregation temperature”) (BAG1M) was 1-2 °C, the “increase of aggregation temperature” value (BAG1L) was 1-2 °C and the “increase of aggregation temperature” value (BAG1 [1]) was 3 °C. The ROS production ([2]; MCF-7 cells) was “significant dose-dependent production of ROS”, the ROS production ([2]; T47D cells) was “not in T47D cells” and the “level of the BAG1 proteins” value (BAG1 [3]) was “dose-dependent decrease in the level of the BAG1 proteins”. The ERα half-life (ERα) was “about 60 min”, the BAG1-mortalin interaction [4] was “indeed decreased this interaction” and the p53-mortalin interaction (p53/mortalin complex) was “decreased this interaction”. The E2-mediated gene expression (ERα response genes) was “downregulation of E2-mediated gene expression” and the apoptosis (MCF-7 and T47D cells) was “increased number of the cells in the late stage of apoptosis”.
